Data published in patent US20160145267A1, “HETEROARYL SUBSTITUTED PYRAZOLES” (BAYER PHARMA AKTIENGESELLSCHAFT, priority 2013, published 2016).

target: T1, catalytic domain of human Bub1 (amino acids 704-1085) (Homo sapiens, UniProt O43683); assay: Bub1 kinase assay (TR-FRET); format: biochemical; details: not given
T1 construct: catalytic domain of human Bub1 (amino acids 704-1085); His6 (N); made in house; host or cells: Hi5 insect cells
Experimental: To this end, 100-fold concentrated compound solutions (in DMSO) were previously prepared by serial dilution (1:3.4) of 2 mM stocks in a clear low volume 384-well source microtiter plate (Greiner Bio-One, Frickenhausen, Germany), from which 50 nL of compounds were transferred into a black low volume test microtiter plate from the same supplier. […] The resulting mixture (5 μL final volume) was incubated at 22° C. during 60 min., and the reaction was stopped by the addition of 5 μL of an aqueous EDTA-solution (50 mM EDTA, in 100 mM HEPES pH 7.5 and 0.2% (w/v) bovine serum albumin) which also contained the TR-FRET detection reagents (0.2 μM streptavidin-XL665 [Cisbio Bioassays, Codolet, France] and 1 nM anti-phoshoSerine antibody [Merck Millipore, cat. #35-001] and 0.4 nM LANCE EU-W1024 labeled anti-mouse IgG antibody [Perkin-Elmer, product no. AD0077, alternatively a Terbium-cryptate-labeled anti-mouse IgG antibody from Cisbio Bioassays can be used]). The stopped reaction mixture was further incubated 1 h at 22° C. in order to allow the formation of complexes between peptides and detection reagents. Subsequently, the amount of product was evaluated by measurement of the resonance energy transfer from the Eu-chelate-antibody complex recognizing the Phosphoserine residue to the streptavidin-XL665 bound to the biotin moiety of the peptide.

T1 sequence (O43683 704-1085): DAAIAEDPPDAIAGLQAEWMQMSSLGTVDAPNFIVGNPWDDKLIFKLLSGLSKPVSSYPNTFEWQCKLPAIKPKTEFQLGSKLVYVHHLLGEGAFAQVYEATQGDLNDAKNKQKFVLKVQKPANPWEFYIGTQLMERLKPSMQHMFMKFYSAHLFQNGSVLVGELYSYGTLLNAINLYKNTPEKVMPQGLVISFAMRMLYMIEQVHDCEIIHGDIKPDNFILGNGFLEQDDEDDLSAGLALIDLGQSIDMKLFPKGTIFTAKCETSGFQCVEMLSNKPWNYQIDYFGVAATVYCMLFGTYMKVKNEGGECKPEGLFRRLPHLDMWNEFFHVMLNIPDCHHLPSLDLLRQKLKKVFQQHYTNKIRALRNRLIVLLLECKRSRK

IC50	Structure (SMILES)
67 nM	CCOc1cc(F)c(Cn2nc(-c3nc(Nc4ccncc4)nc(Nc4ccncc4)n3)c(C)c2C2CC2)c(F)c1 [Example 2-2-8, 6-[5-cyclopropyl-1-(4-ethoxy-2,6-difluorobenzyl)-4-methyl-1H-pyrazol-3-yl]-N,N′-di(pyridin-4-yl)-1,3,5-triazine-2,4-diamine]
140 nM	CCOc1cc(F)c(Cn2nc(-c3nc(Nc4ccncn4)c(N4CCOCC4)c(Nc4ccncn4)n3)c(C)c2C2CC2)c(F)c1 [Example 2-2-7, 2-[5-cyclopropyl-1-(4-ethoxy-2,6-difluorobenzyl)-4-methyl-1H-pyrazol-3-yl]-5-(morpholin-4-yl)-N,N′-di(pyrimidin-4-yl)pyrimidine-4,6-diamine]
≥ 20000 nM	CCOc1cc(F)c(Cn2nc(-c3nc(Nc4ccnc(OC)c4)cc(Nc4ccnc(OC)c4)n3)c(C)c2C2CC2)c(F)c1 [Example 2-2-2, 2-[5-cyclopropyl-1-(4-ethoxy-2,6-difluorobenzyl)-4-methyl-1H-pyrazol-3-yl]-N,N′-bis(2-methoxypyridin-4-yl)pyrimidine-4,6-diamine]
5500 nM	CCOc1cc(F)c(Cn2nc(-c3nc(Nc4ccnnc4)nc(Nc4ccnnc4)n3)c(C)c2C2CC2)c(F)c1 [Example 2-2-11, 6-[5-cyclopropyl-1-(4-ethoxy-2,6-difluorobenzyl)-4-methyl-1H-pyrazol-3-yl]-N,N′-di(pyridazin-4-yl)-1,3,5-triazine-2,4-diamine]

same assay, conditions: 10 μM ATP, 1 μM peptide substrate, TR-FRET; read-out: Biological Assay 1: Bub1 kinase assay median IC50

IC50	Structure (SMILES)
340 nM	CCNC(=O)Nc1nc(-c2nn(Cc3c(F)cc(OCC)cc3F)c(C3CC3)c2C)nc(Nc2ccncn2)c1OC [Example 2-1-15, 1-{2-[5-cyclopropyl-1-(4-ethoxy-2,6-difluorobenzyl)-4-methyl-1H-pyrazol-3-yl]-5-methoxy-6-(pyrimidin-4-ylamino)pyrimidin-4-yl}-3-ethylurea]
550 nM	CCOc1cc(F)c(Cn2nc(-c3nc(NC(=O)NC4CCCCC4)cc(Nc4ccncn4)n3)c(C)c2C2CC2)c(F)c1 [Example 2-1-13, 1-cyclohexyl-3-{2-[5-cyclopropyl-1-(4-ethoxy-2,6-difluorobenzyl)-4-methyl-1H-pyrazol-3-yl]-6-(pyrimidin-4-ylamino)pyrimidin-4-yl}urea]
310 nM	CCOc1cc(F)c(Cn2nc(-c3nc(Nc4ccncc4)c(OC)c(Nc4ccncc4)n3)c(C)c2C2CC2)c(F)c1 [Example 2-2-4, 2-[5-cyclopropyl-1-(4-ethoxy-2,6-difluorobenzyl)-4-methyl-1H-pyrazol-3-yl]-5-methoxy-N,N′-di(pyridin-4-yl)pyrimidine-4,6-diamine]
240 nM	CCOc1cc(F)c(Cn2nc(-c3nc(NC(=O)NC4CCCCC4)cc(Nc4ccncc4)n3)c(C)c2C2CC2)c(F)c1 [Example 2-1-12, 1-cyclohexyl-3-{2-[5-cyclopropyl-1-(4-ethoxy-2,6-difluorobenzyl)-4-methyl-1H-pyrazol-3-yl]-6-(pyridin-4-ylamino)pyrimidin-4-yl}urea]
